Data: patent US20060280687A1, “Compounds for tissue imaging and methods of use thereof” (priority 2005, published 2006)
One block for each compound: values may come before it.

How the values were obtained:
[1] = UV absorption and fluorescence spectra; type: physicochemical
Method: The crude product was then injected onto a semi-preparative HPLC column, where the flow rate was 3 mL/min, with the mobile phase starting from 5% solvent B (0.1%TFA in CH3CN) and 95% solvent A (0.1%TFA in water) (0-3 min) to 65% solvent B and 35% solvent A at 33 min, then going to 85% solvent B and 15% solvent A (33-36 min), maintaining this solvent composition for another three minutes (36-39 min), and returning to initial solvent composition by 42 min. Product elution was monitored at both 218 and 590 nm using a UV-Vis detector. The product peak was collected, lyophilized, and identified by MALDI-TOF-MS. The chemical purity of product was determined by analytical HPLC (same gradient as used for semi-preparative HPLC; flow rate: 1.0 ml/min). The product was re-dissolved in saline at a concentration of 1 mg/mL, and stored in the dark at −80° C. until use. The absorbance spectrum of Cy5.5-2DG was rerecorded on an Agilent 8453 UV-visible ChemStation (Agilent Technologies, Wilmington, DE), and fluorescence spectrum of Cy5.5-2DG was measured on a Fluoromax-3 fluorophotometer (JOBIN YVON/HORIBA, Edison, N.J.).

[2] = test system: A375M human melanoma cells; test: In vitro cell uptake by fluorescence microscopy, A375M; type: cell-based; details: 1 hour
Method: (§1) For fluorescence microscopic studies, 1 M cells were cultured on 35 mm MatTek glass bottom culture dishes (Cat #: P35G-0-14-C, Ashland, Mas.). After 24 hours, the cells were washed with phosphate-buffered saline (PBS) and then incubated at 37° C. or 4° C. in the presence of 100 nM Cy5.5-2DG for 1 hour. Afterwards, cells were washed in 1 mL ice-cold PBS. The fluorescence signal of the cells was recorded using an Axiovert 200M fluorescence microscope (Carl Zeiss MicroImaging, Inc., Thornwood, N.Y.) equipped with a Cy5.5 filter set (Exciter, HQ 650/20 nm; Emitter, HQ 675/35 nm). An AttoArc HBO 100 W microscopic illuminator was used as a light source for fluorescence excitation. Images were taken using a thermoelectrically cooled charge-coupled device (CCD) (Micromax, model RTE/CCD-576, Princeton Instruments Inc., Trenton, N.J.) and analyzed using WinView Software version 1.6.2 (Princeton Instruments Inc., Trenton, N.J.)
The light images (FIGS. 7A and 7B) show cells in the optical field.

[3] = Stability on in vitro incubation in mouse serum, HPLC analysis; type: in vitro ADME; details: 30 minutes incubation in mouse serum
Method: The stability of the Cy5.5-2DG compound was evaluated by incubating the compound in vitro in mouse serum and analyzing the serum as a function of time by high pressure liquid chromatography (HPLC). […] The main peak is observed at 15.2 minutes.

[4] = test system: murine melanoma cells B16F10; test: In vitro cell uptake by fluorescence microscopy, B16F10; type: cell-based; details: 1 hour
Method: as §1
FIGS. 8A and 8C show a light image (FIG. 8A) and a fluorescent image (FIG. 8C) of murine melanoma cells B16F10 incubated in vitro with Cy5.5-2DG for one hour at 37° C. […] FIGS. 8B and 8D show a light image (FIG. 8B) and a fluorescent image (FIG. 8D) of the same type of cells incubated in vitro with Cy5.5-2DG for one hour at 4° C.

[5] = test system: MDA-MB-435 human breast carcinoma cells; test: In vitro cell uptake by fluorescence microscopy, MDA-MB-435; type: cell-based; details: 1 hour
Method: as §1
FIGS. 9A-9D illustrate the results of a similar study using MDA-MB-435 human breast carcinoma cells. Incubation at 37° C. […] (FIGS. 9B and 9D).

[6] = test system: C6 rat glioma cells; test: In vitro cell uptake by fluorescence microscopy, C6; type: cell-based; details: 1 hour
Method: as §1
Additional in vitro studies were conducted with several other tumor cells lines, including C6 rat glioma cells. Following the procedure set forth in Example 2, the glioma cells were incubated for one hour at 37° C. or at 4° C., and light images and fluorescent images were taken. The light images are shown in FIGS. 6A and 6B and the fluorescent images in FIGS. 6C and 6D. Both light images show cells in the image field.

[7] = test system: human melanoma (A375M) xenograft; test: In vivo fluorescence imaging of mice bearing a human melanoma (A375M) xenograft; details: n=3
Method: Another study was conducted using mice (n=3) bearing a human melanoma (A375M) xenograft. When the tumor reached […] diameter, the mice received via tail vein injection 500 pmol of Cy5.5-2DG compound.

[8] = test system: human glioblastoma cells (U87MG); test: In vitro cell uptake by fluorescence microscopy, U87MG; type: cell-based; details: 100 nM, 1 hour
Method: Human glioblastoma U87MG cells were cultured in Dulbecco's modified Eagle medium (DMEM, Invitrogen Life Technologies, Carlsbad, Calif.), high glucose plus 10% fetal bovine serum (FBS), and 1% penicillin-streptomycin. The cells were maintained in a humidified atmosphere of 5% CO2 at 37° C., with the medium changed every other day. A confluent monolayer was detached with trypsin and dissociated into a single cell suspension for further cell culture.
as §1, with “After 24 hours, the cells were washed with phosphate-buffered saline (PBS) and then incubated at 37° C. or 4° C. in the presence of 100 nM Cy5.5-2DG for 1 hour. Afterwards, cells were washed in 1 mL ice-cold PBS.” left out
Tumor uptake of the Cy5.5-2DG compound into human glioblastoma cells (U87MG) was determined by incubating the cells in vitro with the compound for one hour at either 37° C. or at 4° C., as described in Example 2. […]

[9] = test system: human glioblastoma xenograft (U87MG); test: In vivo fluorescence imaging of mice bearing a U87MG glioblastoma xenograft
Method: All animal studies were carried out in compliance with federal and local institutional rules for the conduct of animal experimentation. Female athymic nude mice (nu/nu, 10-12 weeks old), obtained from Charles River Laboratories (Boston, Mas.), were inoculated subcutaneously in the right foreleg with 5×10^6 U87MG cultured glioblastoma cells suspended in 100 μL of PBS. Two to three weeks after inoculation, when the tumors reached 0.4-0.6 cm in diameter, the tumor bearing mice were subject to in vivo imaging studies.
In vivo fluorescence imaging was performed with a cooled charged-coupled device (CCD) camera (Xenogen IVIS™ 200 small animal imaging system, Xenogen, Alameda, Calif.). A Cy5.5 filter set was used for acquiring Cy5.5-2DG fluorescence in vivo. Identical illumination settings (lamp voltage, filters, f/stop, field of views, binning) were used for acquiring all images, and fluorescence emission was normalized to photons per second per centimeter squared per steradian (p/s/cm^2/sr). Images were acquired and analyzed using Living Image® D2.5 software (Xenogen).
Mice were injected via tail vein with 50 or 500 pmol Cy5.5-2DG and subjected to optical imaging at various time points post injection with a sampling of multiple angles while remaining sedated. […]
All the data are given as means ± SD of n independent measurements. Statistical analysis was performed using a Student's t-test. Statistical significance was assigned for P values <0.05. For determining tumor contrast, mean fluorescence intensities of the tumor area at the right shoulder of the animal (T) and of the corresponding area at the left shoulder (N) were calculated by means of the region of interest function of Living Image software(Xenogen) integrated with Igor (Wavemetrics, Lake Oswego, Oreg.). Dividing T by N yielded the contrast between tumor tissue and normal tissue.
In vivo studies were done to evaluate performance of the Cy5.5-2DG compound in tumor-bearing subjects. As described in Example 3, mice were inoculated in the right foreleg with 5×10^6 U87MG cultured glioblastoma cells. Two to three weeks after inoculation, when the tumors reached 0.4-0.6 cm in diameter, the tumor-bearing mice were used for in vivo imaging studies.
In one study, the mice received 500 pmol of Cy5.5-2DG compound, injected via tail vein. At various times post injection of the probe, an animal was sedated and then imaged using a small animal imaging system available under the trade designation IVIS® (Xenogen, Alameda, Calif.). In other studies described below with respect to FIGS. 22-23, imaging was also done using an imaging system from ART eXplore Optix (ART Inc./GE Healthcare) and compared to imaging using the imaging system IVIS®. FIGS. 10A-10M are images generated with the IVIS® system of sedated, live mice in the prone position as a function of time after administration of 500 pmol of Cy5.5-2DG. […] At 1 hour (FIG. 10B), 2 hours (FIG. 10C), 4 hours (FIG. 10D), and 5 hours (FIG. 10E), the probe progressively clears from the body and begins to localize in the tumor in the right foreleg. In fact, by two hours post injection, accumulation of the compound in the tumor is readily apparent in the image (FIG. 10C). […] The presence of the probe in the tumor is apparent in all the images, long after the probe has cleared from healthy tissue.

[10] = 500 pmol i.v., lateral position

UV absorption wavelength [1]: about 675 nm | fluorescent emission wavelength [1]: about 694 nm
SMILES: CCN1\C(=C/C=C/C=C/C2=[N+](CCCCCC(=O)O)c3ccc4c(S(=O)(=O)O)cc(S(=O)(=O)O)cc4c3C2(C)C)C(C)(C)c2c1ccc1c(S(=O)(=O)[O-])cc(S(=O)(=O)O)cc21 [Cy5.5® dye, reference compound]

stability in mouse serum [3]: stable | UV absorption wavelength [1]: about 675 nm | fluorescent emission wavelength [1]: about 694 nm | time after injection at which accumulation in the tumor is apparent ([9]; 50 pmol i.v., lateral position): 1 h | time after injection at which preferential accumulation in the tumor is apparent ([9]; 50 pmol i.v., prone position): 30 min | time to maximum fluorescence intensity ([9]; 50 pmol i.v., prone position): ≤ 30 min | latest time point with fluorescence of the tumor tissue observed [9, 10]: 94 h | time by which compound has cleared from the tumor (tumor no longer visible) [9, 10]: ≤ 114 h | time post injection at which localization in the tumor is apparent in the image [9, 10]: two | time post injection at which accumulation in the tumor is apparent in the image ([9]; 500 pmol i.v., prone position): two | retention in the tumor ([9]; after single administration): up to 100 hours
SMILES: CC[N+]1=C(C=CC=CC=C2N(CCCCCC(=O)NC3C(O)OC(CO)C(O)C3O)c3ccc4c(S(=O)(=O)[O-])cc(S(=O)(=O)O)cc4c3C2(C)C)C(C)(C)c2c1ccc1c(S(=O)(=O)[O-])cc(S(=O)(=O)O)cc21.[K+] (stereo not shown) [Cy5.5-2DG]
uptake into the cells ([2]; 4° C.): no apparent fluorescence | uptake into the cells ([2]; 37° C.): took in the compound | uptake into the cells ([4]; 4° C.): Little, if any | uptake into the cells ([4]; 37° C.): Uptake of the compound into the cells is apparent | uptake into the tumor cells ([5]; 4° C.): little of the compound | uptake into the tumor cells ([5]; 37° C.): resulted in uptake | uptake into the cells ([6]; 4° C.): took up little, if any, of the compound | uptake into the cells ([6]; 37° C.): distinct fluorescing cells visible | fluorescence of tumor tissue ([7]; 500 pmol i.v., 3, 24 and 48 hours post-injection): continued preferential fluorescence of tumor tissue | localization in the tumor ([7]; 500 pmol i.v., 2 hours post-injection): localization of the compound in the tumor is apparent | uptake of the fluorescent compound by the cells ([8]; 4° C.): lack of fluorescing cells | uptake of the fluorescent compound by the cells ([8]; 37° C.): considerably more uptake | ratio of fluorescence intensity of tumor tissue to healthy tissue ([9]; 50 pmol i.v., lateral position): about two | ratio of fluorescence intensity of tumor tissue to healthy tissue ([9]; 50 pmol i.v., prone position, 30 minutes after injection): 1.5 | ratio of fluorescence intensity of tumor tissue to healthy tissue ([9]; 50 pmol i.v., prone position, by about 10 hours after injection): more than two | ratio of fluorescence intensity of tumor tissue to healthy tissue ([9]; 500 pmol i.v., lateral position, by about five hours post injection): two | ratio of fluorescence intensity of tumor tissue to healthy tissue ([9]; 500 pmol i.v., lateral position, up to 100 hours post injection): around two | ratio of fluorescence intensity of tumor tissue to healthy tissue (average radiance) ([9]; 500 pmol i.v., prone position, 120 hours post injection): 1.5 | ratio of fluorescence intensity of tumor tissue to healthy tissue (average radiance) ([9]; 500 pmol i.v., prone position, about 4 hours post-injection): 1.5 | ratio of fluorescence intensity of tumor tissue to healthy tissue (average radiance) ([9]; 500 pmol i.v., prone position, about 18 hours post injection): two | ex vivo fluorescence of dissected tumor versus major tissues and organs ([9]; 500 pmol, 45 hours post injection): highest fluorescence intensity among the tissues imaged
